The compounds below were run against T1, human CaMKIIδ (Homo sapiens, UniProt Q13557) (assay: Evaluation of in vitro CaMKII inhibitory activity (binding assay, TR-FRET)). Conditions: human CaMKIIδ, TR-FRET binding assay; class symbols A/B/C; read-out: Act (CaMKII inhibitory activity, binding assay).
T1 construct: Full-length, glutathione-S-transferase(GST)-tagged, human CaMKIIδ was purchased from Carna Biosciences; purchased Carna Biosciences (CaMKIIδ); Wako Pure Chemical Industries (calmodulin) 02-111
Protocol: Evaluation of In Vitro CaMKII Inhibitory Activity (Binding Assay)
In vitro CaMKIIδ inhibitory activity was evaluated by a binding assay.
Full-length bovine calmodulin was purchased from Wako Pure Chemical Industries (Osaka, Japan). Terbium-labeled anti-GST anti body (Tb-anti-GST Ab) was purchased from Life Technologies (Carlsbad, CA, USA). Fluorescent probe ligand, 5,5-difluoro-7,9-dimethyl-3-(3-oxo-3-((3-((4-(3-(piperazin-1-yl)phenyl)pyrimidin-2-yl)amino)phenyl)amino) propyl)-5H-dipyrrolo[1,2-c:2′,1′-f]
Time-resolved fluorescence resonance energy transfer (TR-FRET) assay
The fluorescent probe ligand, 5,5-difluoro-7,9-dimethyl-3-(3-oxo-3-((3-((4-(3-(piperazin-1-yl)phenyl)pyrimidin-2-yl)amino)phenyl)amino) propyl)-5H-dipyrrolo[1,2-c:2′,1′-f] […] After shaded incubation of the protein-probe mixture on ice for 30 min, the premix was dispensed in the assay plate including test inhibitors with 4 fold dilution series of eight concentrations. After 1 hr incubation at room temperature, TR-FRET signals were measured in duplicate using an EnVision microplate reader (Perkin Elmer, Waltham, MA, USA).
The half maximal inhibitory concentration (IC50) of test compounds was calculated by fitting the data with the logistic equation using XLfit (IDBS, Guildford, UK).
In the case of COc1ccnc(-c2cnc3ccc(-c4ccc(F)c(N[C@@H](C)Cn5cnnn5)c4)nn23)c1C#N [Example 478, 2-[6-(4-fluoro-3-{[(2S)-1-(1H-tetrazol-1-yl)propan-2-yl]amino}phenyl)imidazo[1,2-b]pyridazin-3-yl]-4-methoxypyridine-3-carbonitrile], the IC50 is reported as less than 10 nM.
For COC(=O)c1cccc(-c2cnn3ccc(-c4ccc(C#N)c(O[C@@H](C)Cn5cnnn5)c4)nc23)c1 [compound 2, methyl 3-[5-(4-cyano-3-{[(2S)-1-(1H-tetrazol-1-yl)propan-2-yl]oxy}phenyl)pyrazolo[1,5-a]pyrimidin-3-yl]benzoate], the IC50 was greater than 100 nM.
For C[C@@H](Cn1cnnn1)Oc1cc(-c2ccn3ncc(-c4cccs4)c3n2)ccc1F [compound 3], the IC50 was less than 10 nM.
C[C@@H](Cn1cnnn1)Oc1cc(-c2ccn3ncc(-c4ccccn4)c3n2)ccc1F [compound 4] was tested, and the IC50 was less than 10 nM.
For C[C@@H](Cn1cnnn1)Oc1cc(-c2ccn3ncc(-c4ccccc4)c3n2)ccc1F [compound 5], the IC50 was less than 10 nM.
For COC(=O)c1cccc(-c2cnn3ccc(-c4ccc(F)c(O[C@@H](C)Cn5cnnn5)c4)nc23)c1 [compound 6], the IC50 was less than 10 nM.
With C[C@@H](Cn1cnnn1)Oc1cc(-c2ccn3ncc(-c4cccc(C(=O)O)c4)c3n2)ccc1F [compound 7] the IC50 was less than 10 nM.
Work on CCNC(=O)c1cccc(-c2cnn3ccc(-c4ccc(F)c(O[C@@H](C)Cn5cnnn5)c4)nc23)c1 [compound 8] yielded an IC50 of less than 10 nM.
For COCCCNC(=O)c1cccc(-c2cnn3ccc(-c4ccc(F)c(O[C@@H](C)Cn5cnnn5)c4)nc23)c1 [compound 9], the IC50 was less than 10 nM.
C[C@@H](Cn1cnnn1)Oc1cc(-c2ccn3ncc(-c4cccc(C(=O)N5CCC(N6CCOCC6)CC5)c4)c3n2)ccc1F [compound 10] was tested, and the IC50 was less than 10 nM.
CCN(CC)CCNC(=O)c1cccc(-n2cnc3ccc(-c4ccc(C#N)c(O[C@@H](C)Cn5cnnn5)c4)nc32)c1 [compound 11] was tested, and the IC50 was greater than 100 nM.
In the case of CCN(CC)CCNC(=O)c1cccc(-n2cnc3ccc(-c4ccc(F)c(O[C@@H](C)Cn5cnnn5)c4)nc32)c1 [compound 12], the IC50 is reported as less than 10 nM.
For COC(=O)c1cccc(-n2cnc3ccc(-c4ccc(F)c(O[C@@H](C)Cn5cnnn5)c4)nc32)c1 [compound 13], the IC50 was less than 10 nM.
Work on COC(=O)c1ccnc(-n2cnc3ccc(-c4ccc(F)c(O[C@@H](C)Cn5cnnn5)c4)nc32)c1 [compound 14] yielded an IC50 of less than 10 nM.
C[C@@H](Cn1cnnn1)Oc1cccc(-c2ccn3ncc(-c4ccc(N5CCOCC5)cc4)c3n2)c1 [compound 15] was tested, and the IC50 was 10 to 100 nM.
Work on C[C@@H](Cn1cnnn1)Oc1cccc(-c2ccn3ncc(-c4cccc(C(=O)O)c4)c3n2)c1 [compound 16] yielded an IC50 of less than 10 nM.
With C[C@@H](Cn1cnnn1)Oc1cc(-c2ccc3ncc(-c4cccs4)n3c2)ccc1F [compound 17] the IC50 was 10 to 100 nM.
C[C@@H](Cn1cnnn1)Oc1cc(-c2ccn3ncc(-c4ccco4)c3n2)ccc1F [compound 18] showed an IC50 of less than 10 nM.
C[C@@H](Cn1cnnn1)Oc1cc(-c2ccn3ncc(-c4ccoc4)c3n2)ccc1F [compound 19] was tested, and the IC50 was less than 10 nM.
In the case of C[C@@H](Cn1cnnn1)Oc1cc(-c2ccn3ncc(-c4cccnc4)c3n2)ccc1F [compound 20], the IC50 is reported as less than 10 nM.
C[C@@H](Cn1cnnn1)Oc1cc(-c2ccn3ncc(-c4ccncc4)c3n2)ccc1F [compound 21] was tested, and the IC50 was less than 10 nM.
With C[C@@H](Cn1cnnn1)Oc1cc(-c2ccn3ncc(-c4cncnc4)c3n2)ccc1F [compound 22] the IC50 was less than 10 nM.
Work on C[C@@H](Cn1cnnn1)Oc1cc(-c2ccn3ncc(-c4cnn(C)c4)c3n2)ccc1F [compound 23] yielded an IC50 of less than 10 nM.
In the case of C[C@@H](Cn1cnnn1)Oc1cc(-c2ccn3ncc(-c4ccnn4C)c3n2)ccc1F [compound 24], the IC50 is reported as 10 to 100 nM.
C[C@@H](Cn1cnnn1)Oc1cc(-c2ccn3ncc(-c4ccn(C)n4)c3n2)ccc1F [compound 25] showed an IC50 of less than 10 nM.
In the case of C[C@@H](Cn1cnnn1)Oc1cc(-c2ccn3ncc(-c4ccsc4)c3n2)ccc1F [compound 26], the IC50 is reported as less than 10 nM.
With C[C@@H](Cn1cnnn1)Oc1cc(-c2ccn3ncc(-c4cncs4)c3n2)ccc1F [compound 27] the IC50 was less than 10 nM.
C[C@@H](Cn1cnnn1)Oc1cc(-c2ccn3ncc(-c4ccccc4C#N)c3n2)ccc1F [compound 28] showed an IC50 of less than 10 nM.
With C[C@@H](Cn1cnnn1)Oc1cc(-c2ccn3ncc(-c4cccc(C#N)c4)c3n2)ccc1F [compound 29] the IC50 was less than 10 nM.
Work on COc1ccc(-c2cnn3ccc(-c4ccc(F)c(O[C@@H](C)Cn5cnnn5)c4)nc23)cc1 [compound 30] yielded an IC50 of less than 10 nM.
For COc1ccccc1-c1cnn2ccc(-c3ccc(F)c(O[C@@H](C)Cn4cnnn4)c3)nc12 [compound 31], the IC50 was less than 10 nM.
With COc1cccc(-c2cnn3ccc(-c4ccc(F)c(O[C@@H](C)Cn5cnnn5)c4)nc23)c1 [compound 32] the IC50 was less than 10 nM.
Compound C[C@@H](Cn1cnnn1)Oc1cc(-c2ccn3ncc(-c4cccc(OCC#N)c4)c3n2)ccc1F [compound 33] has an IC50 of less than 10 nM.
CNC(=O)c1ccccc1-c1cnn2ccc(-c3ccc(F)c(O[C@@H](C)Cn4cnnn4)c3)nc12 [compound 34] was tested, and the IC50 was greater than 100 nM.
In the case of CNC(=O)c1cccc(-c2cnn3ccc(-c4ccc(F)c(O[C@@H](C)Cn5cnnn5)c4)nc23)c1 [compound 35], the IC50 is reported as less than 10 nM.
CC(=O)Nc1cccc(-c2cnn3ccc(-c4ccc(F)c(O[C@@H](C)Cn5cnnn5)c4)nc23)c1 [compound 36] was tested, and the IC50 was less than 10 nM.
Compound CNC(=O)c1ccc(-c2cnn3ccc(-c4ccc(F)c(O[C@@H](C)Cn5cnnn5)c4)nc23)cc1 [compound 37] has an IC50 of less than 10 nM.
Compound CC(=O)Nc1ccc(-c2cnn3ccc(-c4ccc(F)c(O[C@@H](C)Cn5cnnn5)c4)nc23)cc1 [compound 38] has an IC50 of less than 10 nM.
CC(=O)Nc1ccccc1-c1cnn2ccc(-c3ccc(F)c(O[C@@H](C)Cn4cnnn4)c3)nc12 [compound 39] was tested, and the IC50 was greater than 100 nM.
For C[C@@H](Cn1cnnn1)Oc1cc(-c2ccn3ncc(-c4cccc(CN(C)C)c4)c3n2)ccc1F [compound 40], the IC50 was less than 10 nM.
C[C@@H](Cn1cnnn1)Oc1cc(-c2ccn3ncc(-c4ccc(CN(C)C)cc4)c3n2)ccc1F [compound 41] was tested, and the IC50 was less than 10 nM.
For CC(=O)N1CCN(c2ccc(-c3cnn4ccc(-c5ccc(F)c(O[C@@H](C)Cn6cnnn6)c5)nc34)cc2)CC1 [compound 42], the IC50 was 10 to 100 nM.
Work on COCCOc1ccccc1-c1cnn2ccc(-c3ccc(F)c(O[C@@H](C)Cn4cnnn4)c3)nc12 [compound 43] yielded an IC50 of less than 10 nM.
COCCOc1ccc(-c2cnn3ccc(-c4ccc(F)c(O[C@@H](C)Cn5cnnn5)c4)nc23)cc1 [compound 44] was tested, and the IC50 was 10 to 100 nM.
C[C@@H](Cn1cnnn1)Oc1cc(-c2ccn3ncc(-c4ccccc4OC(F)(F)F)c3n2)ccc1F [compound 45] showed an IC50 of 10 to 100 nM.
C[C@@H](Cn1cnnn1)Oc1cc(-c2ccn3ncc(-c4cccc(OC(F)(F)F)c4)c3n2)ccc1F [compound 46] was tested, and the IC50 was 10 to 100 nM.
In the case of C[C@@H](Cn1cnnn1)Oc1cc(-c2ccn3ncc(-c4cccc(N5CCOCC5)c4)c3n2)ccc1F [compound 47], the IC50 is reported as 10 to 100 nM.
With C[C@@H](Cn1cnnn1)Oc1cc(-c2ccn3ncc(-c4ccccc4N4CCOCC4)c3n2)ccc1F [compound 48] the IC50 was 10 to 100 nM.
C[C@@H](Cn1cnnn1)Oc1cc(-c2ccn3ncc(-c4ccc(N5CCOCC5)cc4)c3n2)ccc1F [compound 49] was tested, and the IC50 was 10 to 100 nM.
C[C@@H](Cn1cnnn1)Oc1cc(-c2ccn3ncc(-c4cccc(F)c4)c3n2)ccc1F [compound 50] showed an IC50 of less than 10 nM.
C[C@@H](Cn1cnnn1)Oc1cc(-c2ccn3ncc(-c4ccc(F)cc4)c3n2)ccc1F [compound 51] gave an IC50 of less than 10 nM.
C[C@@H](Cn1cnnn1)Oc1cc(-c2ccn3ncc(-c4ccccc4F)c3n2)ccc1F [compound 52] gave an IC50 of less than 10 nM.
CC(C)c1ccc(-c2cnn3ccc(-c4ccc(F)c(O[C@@H](C)Cn5cnnn5)c4)nc23)cc1 [compound 53] was tested, and the IC50 was greater than 100 nM.
Work on C[C@@H](Cn1cnnn1)Oc1cc(-c2ccn3ncc(-c4cccc(OCC5CC5)c4)c3n2)ccc1F [compound 54] yielded an IC50 of 10 to 100 nM.
C[C@@H](Cn1cnnn1)Oc1cc(-c2ccn3ncc(-c4ccccc4N4CCNCC4)c3n2)ccc1F [compound 55] showed an IC50 greater than 100 nM.
Compound C[C@@H](Cn1cnnn1)Oc1cc(-c2ccn3ncc(-c4ccc(N5CCNCC5)cc4)c3n2)ccc1F [compound 56] has an IC50 of less than 10 nM.
Work on C[C@@H](Cn1nnc(N)n1)Oc1cccc(-c2ccn3ncc(-c4cccs4)c3n2)c1 [compound 58] yielded an IC50 greater than 100 nM.
For C[C@@H](Cn1nnnc1N)Oc1cccc(-c2ccn3ncc(-c4cccs4)c3n2)c1 [compound 59], the IC50 was less than 10 nM.
In the case of C[C@@H](Cn1cnnn1)Oc1cc(-c2ccc3ncc(-c4cccs4)n3n2)ccc1F [compound 60], the IC50 is reported as less than 10 nM.
C[C@@H](Cn1cnnn1)Oc1cc(-c2ccc3ncn(-c4cccc(C(=O)O)c4)c3n2)ccc1F [compound 62] showed an IC50 of 10 to 100 nM.
With C[C@@H](Cn1cnnn1)Oc1cccc(-c2ccn3ncc(-c4cccc(C(=O)NCC5CC5)c4)c3n2)c1 [compound 63] the IC50 was less than 10 nM.
CC(C)CCNC(=O)c1cccc(-c2cnn3ccc(-c4cccc(O[C@@H](C)Cn5cnnn5)c4)nc23)c1 [compound 64] gave an IC50 of less than 10 nM.
C[C@@H](Cn1cnnn1)Oc1cccc(-c2ccn3ncc(-c4cccc(C(=O)Nc5cn[nH]c5)c4)c3n2)c1 [compound 65] gave an IC50 of less than 10 nM.
C[C@@H](Cn1cnnn1)Oc1cccc(-c2ccn3ncc(-c4cccc(C(=O)NCCCN5CC(O)C5)c4)c3n2)c1 [compound 66] gave an IC50 of less than 10 nM.

— patent US12528816B2, “Substituted imidazo [1,2-b] pyridazines and [1, 2, 4] triazolo [ 4,3-b] pyridazines as camkii inhibitors” (Cardurion Pharmaceuticals, INC., priority 2020, dated 2026)
